From patent US8536407B2, “Heat resistant plants and plant tissues comprising a variant adenosine diphosphate glucose pyrophosphorylase small subunit protein and methods of use thereof” (University of Florida Research Foundation, Inc., priority 2008, dated 2013)
Where a chain is given by its changes, count along the chain named. “Also recorded” adds a separate entry of the source. Read-outs that look alike come from different tables or passages of the source.

Assays:
[1] = target: T1, maize endosperm ADP-glucose pyrophosphorylase (AGPase) BT2/SH2, wild type small subunit BT2 complexed with wild type large subunit SH2 (Zea mays, UniProt P55241+Q947C0); assay: Kinetic and allosteric characterization of purified recombinant AGPase, forward direction (BT2/SH2); type: biochemical
T1 sequence (Q947C0 1-475): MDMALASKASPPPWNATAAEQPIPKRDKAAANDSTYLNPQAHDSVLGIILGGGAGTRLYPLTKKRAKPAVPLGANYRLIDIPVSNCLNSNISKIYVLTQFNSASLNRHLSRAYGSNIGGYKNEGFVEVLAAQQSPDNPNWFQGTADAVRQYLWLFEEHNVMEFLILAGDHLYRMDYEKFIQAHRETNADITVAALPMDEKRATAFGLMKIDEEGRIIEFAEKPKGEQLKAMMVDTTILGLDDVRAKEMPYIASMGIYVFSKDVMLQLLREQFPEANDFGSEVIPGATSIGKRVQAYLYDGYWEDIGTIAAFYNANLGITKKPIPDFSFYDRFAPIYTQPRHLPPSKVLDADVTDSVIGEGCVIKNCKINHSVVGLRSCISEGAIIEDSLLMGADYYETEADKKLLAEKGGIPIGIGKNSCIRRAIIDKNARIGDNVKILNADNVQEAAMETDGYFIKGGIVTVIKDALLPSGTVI
T1 sequence (P55241 46-516): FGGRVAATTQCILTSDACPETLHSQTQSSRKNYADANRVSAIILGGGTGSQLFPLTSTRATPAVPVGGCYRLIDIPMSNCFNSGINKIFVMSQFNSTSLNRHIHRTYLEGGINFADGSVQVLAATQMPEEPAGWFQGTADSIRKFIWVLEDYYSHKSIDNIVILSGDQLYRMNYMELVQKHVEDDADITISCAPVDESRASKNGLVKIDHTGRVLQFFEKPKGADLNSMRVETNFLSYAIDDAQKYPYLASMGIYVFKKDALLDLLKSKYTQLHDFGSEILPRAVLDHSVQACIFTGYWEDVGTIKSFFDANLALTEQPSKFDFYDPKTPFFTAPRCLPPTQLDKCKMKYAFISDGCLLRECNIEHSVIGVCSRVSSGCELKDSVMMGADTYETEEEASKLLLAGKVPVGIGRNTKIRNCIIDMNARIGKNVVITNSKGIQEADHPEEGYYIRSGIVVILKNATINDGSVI
Experimental: (§1) The following steps were conducted at 4° C.
(§2) The reaction was stopped by boiling for 2 min. […] NADH concentration was estimated by absorbance at 340 nm.
(§3) All other values are expressed as mean±standard deviation.

[2] = target: T2, maize endosperm ADP-glucose pyrophosphorylase (AGPase) variant BT2-TI/SH2, small subunit BT2 with Thr462 to Ile (TI, SEQ ID NO:2) complexed with wild type SH2 (Zea mays, UniProt P55241+Q947C0, T462I); assay: Kinetic and allosteric characterization of purified recombinant AGPase, forward direction (BT2-TI/SH2); type: biochemical
T2 sequence (Q947C0 1-475 T462I): T1 sequence (Q947C0 1-475) with T462I
T2 sequence (P55241 46-516): T1 sequence (P55241 46-516)
Experimental: as §1, §2
A mutant Bt2 library was created by error-prone PCR. The mutational load was ˜2 non-synonymous mutations per clone (Georgelis et al. 2007). The mutants were expressed in E. coli along with a wildtype Sh2 gene. Approximately 50,000 colonies were screened for glycogen production. Ten dark staining colonies were picked. The two darkest staining Bt2 mutants were sequenced. Both had the same non-synonymous mutation resulting in a change of amino acid 462 from threonine to isoleucine (TI). The threonine in that position is absolutely conserved among the higher plant small subunits (data not shown).
Ki's are expressed as mean (95% confidence interval). All other values are expressed as mean±standard deviation.

[3] = target: ADP-glucose pyrophosphorylase (AGPase) variant MP-TI/SH2, maize/potato mosaic small subunit MP with the TI mutation (threonine to isoleucine at position …); assay: Kinetic and allosteric characterization of purified recombinant AGPase, forward direction (MP-TI/SH2); type: biochemical, maize (Zea mays) / potato tuber
Experimental: as §1, §2, §3

[4] = target: ADP-glucose pyrophosphorylase (AGPase) MP/SH2, mosaic small subunit MP (first 200 amino acids of maize BT2 and last 275 amino acids of potato tuber small …); details: for Km: forward direction, pH 7.4, 37° C.
Experimental: AGPase was desalted by using Zeba Micro Desalt Spin Columns (Pierce) before assaying. AGPase was exchanged into 50 mM HEPES, 5 mM MgCl2, 0.5 mM EDTA and 0.5 mg/mL BSA (for stability).
The reaction was stopped by boiling for 2 min. PPi was estimated by coupling the reaction to a reduction in NADH concentration using 300 μl of coupling reagent. The coupling reagent contained 25 mM imidazole pH 7.4, 4 mM MgCl2, 1 mM EDTA, 0.2 mM NADH, 0.725U aldolase, 0.4U triose phosphate isomerase, 0.6U glycerophosphate dehydrogenase, 1 mM fructose 6-phosphate and 0.8 μg of pyrophosphate dependent phosphofructokinase (PPi-PFK). […] NADH concentration was estimated by absorbance at 340 nm. PPi concentration was calculated by a standard curve developed by using various amounts of PPi instead of AGPase. […] The kinetic constants of AGPase were calculated by Prism 4.0 (Graph Pad, San Diego Calif.).
All other values are expressed as mean±standard deviation. The specific activity of AGPase in the absence of 3-PGA is expressed as a percentage of the specific activity in the presence of 10 mM of 3-PGA (mean±standard error).

[5] = system: ADP-glucose pyrophosphorylase (AGPase) MP/SH2, mosaic small subunit MP (first 200 amino acids of maize BT2 and last 275 amino acids of potato tuber small …); details: MP/SH2 compared to wildtype BT2/SH2; Cross et al., 2004; Boehlein et al., 2005; cited from earlier work
E. coli cells = assay: Glycogen produced by E. coli cells expressing AGPase subunits; type: cell-based; details: subunit expressed with SH2 or alone (homotetramer)
Excerpt: A bacterial expression system (Iglesias et al., 1993) allowed us to randomly mutagenize maize endosperm AGPase genes and score AGPase activity in a fast and efficient way by exposing plates to iodine vapors as described below. The E. coli system is ideal for studying plant AGPases for a number of reasons discussed in Georgelis et al. (2007).
Glycogen synthesis was detected by production of brown staining colonies following exposure to iodine vapors. […] (Govons et al., 1969). The colonies were exposed to iodine vapors for 1 min. […] AGPase variants staining darker than wildtype were selected for further study.
Glycogen quantitation was performed by phenol reaction (Hanson and Phillips, 1981). In brief, glycogen was extracted from 1.6 ml of E. coli cells (OD600=2.0) grown in LB containing 2% w/v glucose by boiling for 3 hours in 50% w/v KOH. Glycogen was then precipitated by adding ethanol to 70% v/v and centrifuging at 10000×g for 10 min. After pellet drying, 200 μl de-ionized water, 200 μl of 5% w/v phenol and 1 mL of concentrated sulfuric acid were added. Glycogen was estimated by the absorbance at 488 nm.

maize endosperm AGPase = assay: Kinetic characterization of purified recombinant AGPase variants, forward direction; type: biochemical; details: compared to BT2/SH2
Experimental: as §1, §2, §3

SH2 = target: T3, SH2 (Zea mays, UniProt P55241); assay: Yeast two hybrid, quantitative β-galactosidase assay of subunit-subunit interactions; type: cell-based, maize; details: SH2 as bait, small subunit as prey; listed as TI
T3 construct: expressed in transfected cells
T3 sequence (P55241 46-516): T1 sequence (P55241 46-516)
Experimental: Yeast transformations and a β-galactosidase assay were conducted as described by Greene and Hannah (1998b). The only modification was the use of pGBKT7 and pGADT7 as vectors for the bait and the prey respectively. pGBKT7-53 and pGADT7-T plasmids were used as a positive control.

[6] = 1 mM ATP, 2 mM G-1-P, 2.5 mM 3-PGA, mean (95% confidence interval), read-out: Ki Pi
[7] = specific activity in absence of 3-PGA as percentage of that with 10 mM 3-PGA, mean±standard error
[8] = varying ATP, G-1-P saturating (2 mM), mean±standard deviation

O=P(O)(O)O [Pi, inorganic phosphate]
Ki [1, 6]: 2.32 mM | Ki ([2]; BT2-TI/SH2, 1 mM ATP, 2 mM G-1-P, 2.5 mM 3-PGA, mean (95% confidence interval), read-out: Ki Pi): 4.07 mM | Ki for Pi (compared with BT2/SH2, in words) ([2]; BT2-TI/SH2 versus BT2/SH2): indistinguishable from BT2/SH2 | Ki [3, 6]: 5.87 mM | affinity for Pi (in words) ([4]; MP/SH2 compared to BT2/SH2): decreased affinity for Pi; also recorded: a lower affinity for the inhibitor Pi | Ki ([4]; read-out: Ki Pi, MP/SH2, 1 mM ATP, 2 mM G-1-P, 2.5 mM 3-PGA, mean (95% confidence interval)): 6.61 mM

O=C(O)[C@H](O)COP(=O)(O)O [3-PGA]
Vmax − 3-PGA/Vmax + 3-PGA [1, 7]: (7.2 ± 3.2%) | Ka for 3-PGA (compared with BT2/SH2, in words) ([2]; BT2-TI/SH2 versus BT2/SH2): indistinguishable from BT2/SH2 | Vmax − 3-PGA/Vmax + 3-PGA [3, 7]: (24.4 ± 5.3%) | Vmax − 3-PGA/Vmax + 3-PGA ([4]; MP/SH2, specific activity in absence of 3-PGA as percentage of that with 10 mM 3-PGA, mean±standard error): (28.2 ± 3.1%) | affinity for 3-PGA (in words) ([4]; MP/SH2 compared to BT2/SH2): increased affinity for 3-PGA; also recorded: a higher affinity for 3-PGA | affinity for 3-PGA (in words) [5]: increased affinity for 3-PGA

Nc1ncnc2c1ncn2[C@@H]1O[C@H](COP(=O)(O)OP(=O)(O)OP(=O)(O)O)[C@@H](O)[C@H]1O [ATP]
Km ([1]; read-out: Km ATP, forward direction, pH 7.4, 37° C., varying ATP, mean±standard deviation): 102 µM | kcat (ATP) [1, 8]: 43.321 s⁻¹ | kcat (ATP) ([2]; BT2-TI/SH2, varying ATP, G-1-P saturating (2 mM), mean±standard deviation): 29.112 s⁻¹ | Km (compared with BT2/SH2, in words) ([2]; BT2-TI/SH2 versus BT2/SH2): indistinguishable from BT2/SH2 | Km ([2]; read-out: Km ATP, BT2-TI/SH2, forward direction, pH 7.4, 37° C., varying ATP, mean±standard deviation): 146 µM | Km ([3]; forward direction, pH 7.4, 37° C., varying ATP, mean±standard deviation, read-out: Km ATP): 112 µM | kcat (ATP) [3, 8]: 49.031 s⁻¹ | kcat (ATP) ([4]; MP/SH2, varying ATP, G-1-P saturating (2 mM), mean±standard deviation): 69.337 s⁻¹ | Km ([4]; read-out: Km ATP, MP/SH2, varying ATP, mean±standard deviation): 133 µM

O=P(O)(O)O[C@H]1O[C@H](CO)[C@@H](O)[C@H](O)[C@H]1O [G-1-P, glucose-1-P]
Km (compared with BT2/SH2, in words) ([2]; BT2-TI/SH2 versus BT2/SH2): indistinguishable from BT2/SH2 | Km ([3]; read-out: Km G-1-P, forward direction, pH 7.4, 37° C., varying G-1-P, mean±standard deviation): 59 µM | kcat (G-1-P) ([3]; varying G-1-P, ATP saturating (1 mM), mean±standard deviation): 42.880 s⁻¹ | kcat (G-1-P) ([4]; MP/SH2, varying G-1-P, ATP saturating (1 mM), mean±standard deviation): 62.655 s⁻¹ | Km ([4]; read-out: Km G-1-P, MP/SH2, varying G-1-P, mean±standard deviation): 79 µM

B1: MP-TI: MP mosaic small subunit with the amino acid change of TI introduced (protein)
chain: MDMALASKASPPPWNATAAEQPIPKRDKAAANDSTYLNPQAHDSVLGIILGGGAGTRLYPLTKKRAKPAVPLGANYRLIDIPVSNCLNSNISKIYVLTQFNSASLNRHLSRAYGSNIGGYKNEGFVEVLAAQQSPDNPNWFQGTADAVRQYLWLFEEHNVMEFLILAGDHLYRMDYEKFIQAHRETNADITVAALPMDEKRATAFGLMKIDEEGRIIEFAEKPQGEQLQAMKVDTTILGLDDKRAKEMPFIASMGIYVISKDVMLNLLRDKFPGANDFGSEVIPGATSLGMRVQAYLYDGYWEDIGTIEAFYNANLGITKKPVPDFSFYDRSAPIYTQPRYLPPSKMLDADVTDSVIGEGCVIKNCKIHHSVVGLRSCISEGAIIEDSLLMGADYYETDADRKLLAAKGSVPIGIGKNCHIKRAIIDKNARIGDNVKIINKDNVQEAARETDGYFIKSGIVIVIKDALIPSGIII
modifications: zea mays MP-TI protein
notes: MP mosaic small subunit with the amino acid change of TI introduced
glycogen produced by E. coli cells (E. coli cells): yielded an equal amount of glycogen as MP/SH2

B2: BT2-TI: BT2 small subunit with change of amino acid 462 from threonine to isoleucine (protein)
chain: T1 sequence (Q947C0 1-475) with T462I
modifications: zea mays BT2 protein
notes: BT2 small subunit with change of amino acid 462 from threonine to isoleucine
kcat lower than kcat of BT2/SH2 (maize endosperm AGPase): 30% | strength of subunit-subunit interactions (SH2): did not increase the strength of subunit-subunit interactions; also recorded: does not strengthen the subunit-subunit interactions
